Data on 1 molecule can be found in US6569456B2, “Osmotic device containing diltiazem and an ACE inhibitor or diuretic” (priority 2000, dated 2003).

A short description of this data set: separate study of diltiazem half-life. The note with it: in vivo. From the text:
The delayed release of the diltiazem causes a delay in the onset of diltiazem build-up in the plasma. Accordingly, onset of the side effects (adverse events) associated with diltiazem therapy have a delayed onset and a patient taking the medication before a rest period should not experience any difficulty in falling asleep.

Usually half-life stands for the time in which the quantity being followed falls by half. A lower half-life goes with rapid decline.

As to `COc1ccc([C@@H]2Sc3ccccc3N(CCN(C)C)C(=O)[C@@H]2OC(C)=O)cc1` [diltiazem], the half-life was approximately 510 min.
